Test results: paper PMC12775434, “Ultra-large virtual screening unveils potent agonists of the neuromodulatory orphan receptor GPR139” (Nature Communications, 2025)
Values joined by “and” are separate entries in the source; they are usually repeats but may differ in a detail not shown here. Equal values may be shown once. Read-outs that look alike come from different tables or passages of the source.

Key:
Type in all cases: cell-based
[1] = target: T1, human muscarinic acetylcholine M1 receptor (M1R) (Homo sapiens, UniProt P11229); experiment: Ca2+ mobilization counter-screen in M1R-CHOk1 cells
T1 sequence (P11229 1-460): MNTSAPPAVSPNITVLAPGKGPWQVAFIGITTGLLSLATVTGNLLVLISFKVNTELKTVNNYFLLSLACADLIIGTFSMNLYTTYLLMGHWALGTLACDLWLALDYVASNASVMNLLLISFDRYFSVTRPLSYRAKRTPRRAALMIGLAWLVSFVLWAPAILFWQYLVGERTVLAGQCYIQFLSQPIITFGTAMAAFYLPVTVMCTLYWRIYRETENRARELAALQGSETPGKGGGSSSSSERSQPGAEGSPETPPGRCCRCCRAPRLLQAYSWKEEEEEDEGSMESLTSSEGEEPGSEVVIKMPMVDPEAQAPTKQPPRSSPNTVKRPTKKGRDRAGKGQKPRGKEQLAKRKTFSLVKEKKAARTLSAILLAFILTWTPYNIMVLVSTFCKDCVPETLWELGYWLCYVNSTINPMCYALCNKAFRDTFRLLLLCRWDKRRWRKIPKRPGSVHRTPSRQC
Method: Primary screening and pharmacological characterization of compounds were performed using a CHO-K1 cell line that stably expresses human GPR139 (GPR139-CHOk1). The GPR139-CHOk1 cell line was kindly provided by H. Lundbeck A/S, Denmark[24]. GPR139-CHOk1 cells were grown in Ham’s F-12 Kaighn’s Modification Medium (ThermoFisher #21127030) supplemented with 10% dialyzed fetal bovine serum (US origin, ThermoFisher #26400044), 100 units/mL Penicillin-Streptomycin (ThermoFisher #15140122), and 1 mg/mL Geneticin (ThermoFisher #11811031). […] M1R-CHOk1 cells were purchased from The Missouri S&T cDNA Resource Center (#CEM100TN00). M1R-CHOk1 cells were grown in Ham’s F12 Medium (ThermoFisher #21765029) supplemented with 10% fetal bovine serum (Brazilian origin, ThermoFisher #10270106), 100 units/mL Penicillin-Streptomycin, and 0.25 mg/mL Geneticin. HEK293A cells transiently transfected with GPR139 were used for additional pharmacological assessment of signaling pathways activated by GPR139. HEK239A cells were generously provided by Dr. Asuka Inoue, Tohoku University, Japan. HEK293A cells were grown in Dulbecco’s Modified Eagle Medium (ThermoFisher #31966047) supplemented with 10% dialyzed fetal bovine serum and 100 units/mL Penicillin-Streptomycin. Cell lines were maintained at 37 °C in humidified incubator equilibrated with 5% CO2.
30,000 GPR139- or M1R-CHOk1 cells/well were seeded in black clear bottom tissue culture treated 96-well plates (Greiner #655090) and grown for 20–24 h. Cells were washed with HEPES buffer (Hank’s Balanced Salt Solution (HBBS) supplemented with 20 mM HEPES, 1 mM MgCl2, and 1 mM CaCl2; pH 7.4). Cells were loaded with 50 µL of 2 µM Fluo-4 AM dye (ThermoFisher #F14202) in HEPES buffer supplemented with 2.5 mM probenecid and 0.01% Pluronic F-68 (ThermoFisher #24040032) for 1 h at 37 °C. Cells were washed with HEPES buffer. 50 µL HEPES buffer supplemented with 2.5 mM probenecid was added, and the cells were incubated for 10 min at 37 °C before measurement. 50 µL test compounds diluted in HEPES buffer from DMSO stocks (final DMSO concentration of maximally 0.3%) were added automatically after baseline measurements. The intracellular calcium mobilization was measured on a FlexStation 3 Multimode Microplate Reader (Molecular Devices) at 37 °C with filters for excitation of 485 nm and emission of 525 nm.

[2] = target: T2, GPR139 (Homo sapiens, UniProt Q6DWJ6); experiment: Ca2+ mobilization assay, antagonist mode (EC80 800 nM Lundbeck Cmp 1a after 20 min preincubation), GPR139-CHOk1
T2 sequence (Q6DWJ6 1-353): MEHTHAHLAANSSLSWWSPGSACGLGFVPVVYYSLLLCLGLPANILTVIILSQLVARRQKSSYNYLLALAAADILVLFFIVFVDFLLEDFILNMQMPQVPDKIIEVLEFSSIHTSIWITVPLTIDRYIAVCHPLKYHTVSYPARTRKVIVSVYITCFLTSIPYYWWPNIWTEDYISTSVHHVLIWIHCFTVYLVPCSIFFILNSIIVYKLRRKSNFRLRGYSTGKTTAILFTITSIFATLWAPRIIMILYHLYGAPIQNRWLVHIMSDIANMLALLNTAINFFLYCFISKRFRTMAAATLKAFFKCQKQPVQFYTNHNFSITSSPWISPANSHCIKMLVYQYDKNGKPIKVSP
Method in brief: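 Antagonist mode: 800 nM (EC80) reference agonist Lundbeck Cmp 1a added following 20 min pre-incubation with 10 µM compound. GPR139-CHOk1 cells, Fluo-4 dye, probenecid-containing HEPES buffer pH 7.4; intracellular Ca2+ measured at 37 °C (ex 485, em 525 nm).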

[3] = target: T2, GPR139; experiment: Ca2+ mobilization assay, agonist mode, stable GPR139-CHOk1 cell line; settings: for Emax: normalized to Lundbeck Cmp 1a, read-out: Emax (%) Ca2+
Method in brief: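 Agonist activity of compounds is assessed in stably transfected CHO-K1 cells using the calcium dye Fluo-4 at 37 °C in HEPES-buffered HBSS (pH 7.4). Efficacy is expressed relative to the reference agonist Lundbeck Cmp 1a, set as 100%.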

[4] = individual replicates (Supplementary Figure 5)
[5] = individual replicates (Supplementary Figure 4)
[6] = Agonist mode, individual replicates (Supplementary Figure 4)
[7] = Supplementary Table 2, mean ± SEM, read-out: pEC50 Ca2+ (converted)
[8] = Supplementary Table 2, mean ± SEM
[9] = log [Compound] M = -4.5, individual replicate columns
[10] = log [Compound] M = -5.0, individual replicate columns
[11] = log [Compound] M = -5.5, individual replicate columns
[12] = log [Compound] M = -6.0, individual replicate columns
[13] = log [Compound] M = -6.5, individual replicate columns
[14] = log [Compound] M = -7.0, individual replicate columns
[15] = log [Compound] M = -7.5, individual replicate columns
[16] = log [Compound] M = -8.0, individual replicate columns
[17] = log [Compound] M = -8.5, individual replicate columns
[18] = log [Compound] M = -9.0, individual replicate columns
[19] = GPR139-CHOk1, read-out: EC50, Ca2+ mobilization

Structure (SMILES)	Ca2+ signal (% of Carbachol) [1, 4]	Ca2+ signal (% of Cmp 1a) [2, 5]	Ca2+ signal (% of Cmp 1a) [3, 6]	EC50 [3, 7]	Emax [3, 8]	Ca2+ signal (% of Cmp 1a) [3, 9]	Ca2+ signal (% of Cmp 1a) [3, 10]	Ca2+ signal (% of Cmp 1a) [3, 11]	Ca2+ signal (% of Cmp 1a) [3, 12]	Ca2+ signal (% of Cmp 1a) [3, 13]	Ca2+ signal (% of Cmp 1a) [3, 14]	Ca2+ signal (% of Cmp 1a) [3, 15]	Ca2+ signal (% of Cmp 1a) [3, 16]	Ca2+ signal (% of Cmp 1a) [3, 17]	Ca2+ signal (% of Cmp 1a) [3, 18]	EC50 [3, 19]	also measured
Cc1nc(-c2nc(CC(=O)NC(C)c3ccccc3)no2)co1 (stereo not shown) [Compound 1.29, CC(C1=CC=CC=C1)NC(CC2=NOC(C3=COC(C)=N3)=N2)=O]	-4.71 % of Carbachol and 3.73 % of Carbachol and 1.63 % of Carbachol	41 % of Cmp 1a and 13 % of Cmp 1a and 3 % of Cmp 1a	64 % of Cmp 1a and 49 % of Cmp 1a and 69 % of Cmp 1a	2.51 µM	90 ± 8%	126 % of Cmp 1a and 100 % of Cmp 1a and 74 % of Cmp 1a	67 % of Cmp 1a and 101 % of Cmp 1a and 61 % of Cmp 1a	46 % of Cmp 1a and 95 % of Cmp 1a and 41 % of Cmp 1a	17 % of Cmp 1a and 47 % of Cmp 1a and 13 % of Cmp 1a	0.562 % of Cmp 1a and 21 % of Cmp 1a and 3 % of Cmp 1a	-7 % of Cmp 1a and 12 % of Cmp 1a and 3 % of Cmp 1a	-2.32 % of Cmp 1a and 6.5 % of Cmp 1a and 3.51 % of Cmp 1a	0.891 % of Cmp 1a and 5.39 % of Cmp 1a and 3 % of Cmp 1a	-0.262 % of Cmp 1a and 8 % of Cmp 1a and -2.12 % of Cmp 1a	-0.615 % of Cmp 1a and 11 % of Cmp 1a and -1.07 % of Cmp 1a		
CC(NC(=O)Cc1noc(-c2cccs2)n1)c1ccccc1 (stereo not shown) [Compound 1.8, CC(C1=CC=CC=C1)NC(CC2=NOC(C3=CC=CS3)=N2)=O]	5 % of Carbachol and -12 % of Carbachol and 8 % of Carbachol	-5.67 % of Cmp 1a and 1.33 % of Cmp 1a and -13 % of Cmp 1a	85 % of Cmp 1a and 73 % of Cmp 1a and 70 % of Cmp 1a		107 ± 2%	109 % of Cmp 1a and 116 % of Cmp 1a and 101 % of Cmp 1a	111 % of Cmp 1a and 105 % of Cmp 1a and 96 % of Cmp 1a	93 % of Cmp 1a and 94 % of Cmp 1a and 84 % of Cmp 1a	85 % of Cmp 1a and 82 % of Cmp 1a and 75 % of Cmp 1a	69 % of Cmp 1a and 70 % of Cmp 1a and 47 % of Cmp 1a	38 % of Cmp 1a and 47 % of Cmp 1a and 20 % of Cmp 1a	0.333 % of Cmp 1a and 13 % of Cmp 1a and 7 % of Cmp 1a	-16 % of Cmp 1a and -13 % of Cmp 1a and 1.67 % of Cmp 1a	-16 % of Cmp 1a and 4.67 % of Cmp 1a and -5.33 % of Cmp 1a	-11 % of Cmp 1a and -5.67 % of Cmp 1a and -13 % of Cmp 1a	0.2 µM	
COc1cccc(-c2nc(CC(=O)NC(C)c3ccccc3)no2)c1 (stereo not shown) [Compound 1.10, COC1=CC(C2=NC(CC(NC(C3=CC=CC=C3)C)=O)=NO2)=CC=C1]	12 % of Carbachol and -9 % of Carbachol and 13 % of Carbachol	0.667 % of Cmp 1a and -2.67 % of Cmp 1a and -13 % of Cmp 1a	119 % of Cmp 1a and 102 % of Cmp 1a and 114 % of Cmp 1a		111 ± 5%	112 % of Cmp 1a and 110 % of Cmp 1a and 101 % of Cmp 1a	114 % of Cmp 1a (2×) and 92 % of Cmp 1a	118 % of Cmp 1a and 113 % of Cmp 1a and 104 % of Cmp 1a	92 % of Cmp 1a and 83 % of Cmp 1a and 79 % of Cmp 1a	70 % of Cmp 1a and 58 % of Cmp 1a and 60 % of Cmp 1a	51 % of Cmp 1a and 30 % of Cmp 1a and 40 % of Cmp 1a	20 % of Cmp 1a and 5.67 % of Cmp 1a and 19 % of Cmp 1a	10 % of Cmp 1a and -8 % of Cmp 1a and 0.333 % of Cmp 1a	11 % of Cmp 1a and -17 % of Cmp 1a and 4 % of Cmp 1a	16 % of Cmp 1a and -3 % of Cmp 1a and 6.33 % of Cmp 1a	0.2 µM	
CN1CC(=O)N(c2cccc(NC(=O)C3Cc4ccccc43)c2)C1=O (stereo not shown) [Compound 9, CN1CC(=O)N(C1=O)C=2C=CC=C(NC(=O)C3CC=4C=CC=CC34)C2]																	Ca2+ signal (% of Carbachol) ([1]; individual replicates (Supplementary Figure 2)): -9 % of Carbachol and -19 % of Carbachol; Ca2+ signal (% of Cmp 1a) ([2]; individual replicates (Supplementary Figure 1)): 73.6349 % of Cmp 1a and 73.421 % of Cmp 1a and 97.2374 % of Cmp 1a; Ca2+ signal (% of Cmp 1a) ([3]; 0.1 µM, individual replicates (Supplementary Figure 3)): -6.9 % of Cmp 1a and -8.5 % of Cmp 1a; Ca2+ signal (% of Cmp 1a) ([3]; 1 µM, individual replicates (Supplementary Figure 3)): -0.2 % of Cmp 1a and -5.2 % of Cmp 1a; Ca2+ signal (% of Cmp 1a) ([3]; 10 µM, individual replicates (Supplementary Figure 3)): 18.7 % of Cmp 1a and 14.1 % of Cmp 1a; Ca2+ signal (% of Cmp 1a) ([3]; Agonist mode, individual replicates (Supplementary Figure 1)): 25 % of Cmp 1a and 10 % of Cmp 1a and 48 % of Cmp 1a
Cc1cc(-c2nc(CC(=O)NC(C)c3ccccc3)no2)ns1 (stereo not shown) [Compound 1.43, CC(NC(=O)CC1=NOC(=N1)C=2C=C(C)SN2)C=3C=CC=CC3]	-0.351 % of Carbachol and 1.19 % of Carbachol and 1.15 % of Carbachol	4.33 % of Cmp 1a and 17 % of Cmp 1a and 5 % of Cmp 1a	63 % of Cmp 1a and 81 % of Cmp 1a and 86 % of Cmp 1a	1.58 µM	102 ± 7%	114 % of Cmp 1a and 107 % of Cmp 1a and 84 % of Cmp 1a	92 % of Cmp 1a and 86 % of Cmp 1a and 81 % of Cmp 1a	82 % of Cmp 1a and 55 % of Cmp 1a and 100 % of Cmp 1a	35 % of Cmp 1a and 11 % of Cmp 1a and 48 % of Cmp 1a	14 % of Cmp 1a and -6.32 % of Cmp 1a and 5 % of Cmp 1a	-6 % of Cmp 1a and 6 % of Cmp 1a and -11 % of Cmp 1a	0.152 % of Cmp 1a and 7 % of Cmp 1a and -5.32 % of Cmp 1a	0.817 % of Cmp 1a and 5 % of Cmp 1a and 7 % of Cmp 1a	-1.79 % of Cmp 1a and -1.64 % of Cmp 1a and 0.136 % of Cmp 1a	1.86 % of Cmp 1a and -3 % of Cmp 1a and -0.513 % of Cmp 1a		fold decrease in potency relative to parent compound 1 ([3]; Ca2+ mobilization EC50): 3- to 25 fold
